Data set [1] can be described thus: method code SF, from DOI: 10.1002/jps.2600790712, PMID: 2398468.
Data set [2] can be described thus: method code SF-AS, from DOI: 10.1002/jps.2600790712, PMID: 2398468.

As a reminder, the logP is a log measure of how a compound divides between an organic and an aqueous phase.

Consider `C[C@H](CCCNCc1ccccc1)[C@H]1CC[C@H]2[C@@H]3C[C@H](O)[C@@H]4C[C@H](O)CC[C@]4(C)[C@H]3CC[C@]12C`, for which the logP in data set [1] is 4.15. In data set [2], `C[C@H](CCCNCc1ccc(Cl)cc1)[C@H]1CC[C@H]2[C@@H]3CC[C@@H]4C[C@H](O)CC[C@]4(C)[C@H]3CC[C@]12C` gave a logP of 5. For the molecule `C[C@H](CCCN)[C@H]1CC[C@H]2[C@@H]3[C@@H](O)C[C@@H]4C[C@H](O)CC[C@]4(C)[C@H]3CC[C@]12C`, the logP in data set [2] was determined as 4.

For `C[C@H](CCCNCc1ccccc1)[C@H]1CC[C@H]2[C@@H]3[C@H](O)C[C@@H]4C[C@H](O)CC[C@]4(C)[C@H]3C[C@H](O)[C@]12C`, in data set [2], the logP is 3.82. Molecule `C[C@H](CCCNCc1ccccc1)[C@H]1CC[C@H]2[C@@H]3CC[C@@H]4C[C@H](O)CC[C@]4(C)[C@H]3CC[C@]12C` registered a logP in data set [2] of 4.9. On the same count and under the same terms, the result for `C[C@H](CCCNCc1cccc(Cl)c1)[C@H]1CC[C@H]2[C@@H]3CC[C@@H]4C[C@H](O)CC[C@]4(C)[C@H]3CC[C@]12C` reads 4.95; that for `C[C@H](CCCNCc1ccccc1Cl)[C@H]1CC[C@H]2[C@@H]3CC[C@@H]4C[C@H](O)CC[C@]4(C)[C@H]3CC[C@]12C`, 5.05; that for `C[C@H](CCC(=O)NCc1ccccc1)[C@H]1CC[C@H]2[C@@H]3[C@H](O)C[C@@H]4C[C@H](O)CC[C@]4(C)[C@H]3C[C@H](O)[C@]12C`, 3.54.

The molecule `C[C@H](CCCNCc1ccccc1)[C@H]1CC[C@H]2[C@@H]3CC[C@@H]4C[C@H](O)CC[C@]4(C)[C@H]3C[C@H](O)[C@]12C` yielded a logP in data set [2] of 4.8. Turning to `C[C@H](CCCNCc1ccccc1)[C@H]1CC[C@H]2[C@@H]3[C@H](O)C[C@@H]4C[C@H](O)CC[C@]4(C)[C@H]3CC[C@]12C`, the logP in data set [2] worked out at 4.2.

For the origin of these results see the SangsterLogP compilation.
